Test in all cases: NCI tumour cell line growth inhibition, 48 h
Test [1] concerns HCC-2998 colon.
Test [2] has as its system K-562 leukemia.
Test [3] concerns MALME-3M melanoma.
Test [4] deals with OVCAR-4 ovarian.
Test [5] deals with OVCAR-5 ovarian.
For test [6], the system named is OVCAR-8 ovarian.
Test [7] concerns SW-620 colon.
Test [8] has as its system TK-10 renal.
For test [9], the system named is UACC-62 melanoma.

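Method: 48-hour compound exposure of cells in 96-well plates, five concentrations, linear interpolation of endpoints. The concentration for 50% growth inhibition is given as GI50. Definition used: TGI = concentration required for complete inhibition of growth.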 A value given as a limit tells only on which side of the number the result lay.

For `N#Cc1c2c(c(N=[N+]=[N-])n3c1nc1ccccc13)CCCC2`, the TGI in [1] turned out to be 25.8 µM; in test [2], 8.21 µM; in test [3], 5.96 µM; in test [4], 5.33 µM; in test [5] it was 16.8 µM; in test [6], 3.09 µM. For the same compound, the TGI was 4.31 µM in test [7] and 5.76 µM in test [8].

Regarding `CN1CC2(CCCCC2)C(O)C12C=CCCC2` (centres undefined), the TGI in test [1], in test [2], in [3], in [6], in [7] and in test [8] was > 100 µM in each case. In addition, the TGI in [9] is > 100 µM.

Take `S=C(Nc1ccccc1)Nc1[nH]c(=S)sc1-c1nc2ccccc2[nH]1`: the TGI in test [1] was > 100 µM; in test [2] it was > 100 µM; in [3], > 100 µM; in test [4], 81.2 µM; in [5], > 100 µM; in [6], > 100 µM. Moreover, the TGI in test [7], in test [8] and in test [9] was > 100 µM each time.

Turning to `O=C1CCC2(CCC(=O)NC2=O)C(=O)N1`, the TGI in test [1], in test [2], in [3], in test [6], in [7] and in test [8] was > 100 µM throughout.

Consider `O=C1[C@H]2C(c3ccccc3)=NN(C(=O)c3ccccc3)[C@H]2C(=O)N1c1ccccc1`, for which the TGI in test [2], in test [3], in test [6], in test [7], in test [8] and in test [9] was > 100 µM in each case.

Regarding `O=C1C=C(Nc2cccc(Br)c2)c2ccccc2C1=O`, the GI50 was 12.1 µM in [1]; 1520 nM in test [2]; 11 µM in test [4]; 14.5 µM in [5]; 18.6 µM in [6]; 0.482 µM in [7]. In addition, the GI50 in test [9] was 2960 nM. In addition, the TGI in [1] was > 100 µM; in test [2], 18.3 µM; in test [4] it was 63.2 µM; in test [5] it was 34.3 µM; in [6], 93.4 µM; in [7], > 100 µM. The TGI in [9] is 18 µM.

Consider `Cc1nnc2n1N=C(CC(=O)c1ccc(O)cc1O)CN2N`, for which the TGI is > 100 µM in [1]; > 100 µM in test [2]; > 100 µM in test [3]; > 100 µM in [4]; > 100 µM in test [5]; 31 µM in test [7]. Besides, the TGI in test [8] and in test [9] was > 100 µM in each case.

With `O=C(O)c1cc(Cl)cc(NC(=O)C(Cl)Cl)c1Cl`, the TGI in [1], in test [2], in test [3], in [4], in test [6] and in [7] was > 100 µM in each case. The TGI in test [8] and in test [9] was > 100 µM each time.

Take `COc1ccc(C[C@H]2C[C@@H](O)[C@@H](C)C/C=C/Cc3cccc(O)c3C(=O)O2)cn1`: the GI50 in [1] is 17.4 µM; in test [2], 12200 nM; in test [4], 23.7 µM; in test [5], 19 µM; in test [6] it was 29.4 µM; in test [7], 31.6 µM. The GI50 is 24.5 µM in test [8] and 22100 nM in test [9]. The TGI in test [1] is 44.8 µM; in [2], 28.6 µM; in test [4] it was 74.1 µM; in test [5], 37.2 µM; in test [6], > 100 µM; in test [7], > 100 µM. Moreover, the TGI in test [8] came to 72.3 µM; in test [9] it was 64.2 µM.

`Cc1ccc([P+](Cc2ccc([N+](=O)[O-])cc2)(c2ccc(C)cc2)c2ccc(C)cc2)cc1`: the GI50 in test [1] is 2.87 µM; in test [2], 1280 nM; in [4], 2.2 µM; in test [5] it was 6.68 µM; in [6] it was 2.96 µM; in test [7] it was 3.07 µM. For the same compound, the GI50 in test [9] was 1430 nM. For the same compound, the TGI in [1] worked out at 11.8 µM; in test [2] it was 12.3 µM; in test [4], 11.3 µM; in [5], 23.3 µM; in test [6] it was 13 µM; in [7], 15.4 µM. The same compound yielded a TGI in [9] of 6.34 µM.

Turning to `CCC1OCCN1C(C)C` (centres undefined), the TGI in test [1], in test [2], in [3], in test [5], in test [6] and in test [7] was > 100 µM each time. Also, the TGI in [8] and in test [9] was > 100 µM each time.

The values are drawn from PubChem BioAssay (NCI).
